These compounds were tested against T1, Edg-1/S1P1 receptor (Homo sapiens, UniProt P21453) (assay: In vitro cell based receptor activation assay - Transfluor assay (assay I or II; beta-arrestin GFP relocalization after S1P stimulation)). Conditions: at 3.30 μM (run with this as top concentration).
T1 construct: expressed in transfected cells; host or cells: human osteogenic sarcoma U2OS cells: Edg-1 Transfluor U2OS WT Clone #37 (assay I), Edg-1 Transfluor U2OS Clone #3 (assay II)
Excerpt: The following assays can be used to measure the effects of the compounds of the present invention as S1P1/Edg1 inhibitors.
I. In Vitro Cell Based Receptor Activation Assay-Transfluor Assay
(§1) This cell-based assay was designed to assess the ability of small molecule antagonists to inhibit activation of the GPCR S1P1 in the presence of its cognate ligand S1P. The assay used technology initially developed by Norak Biosciences (Xsira Pharmaceutical) and presently owned by Molecular Devices. A human osteogenic sarcoma (U2OS) cell line overexpressing the Edg-1/S1P1) receptor as well as a beta-arrestin/green fluorescent protein (GFP) construct hereafter termed Edg-1 Transfluor U2OS WT Clone #37 was employed.
Using a high content screening approach (Cellomics Arrayscan), receptor activity was measured by assessment of the relocalization of beta-arrestin GFP in response to stimulation of Edg-1 by SIP. Specifically, Edg-1 Transfluor U2OS WT Clone #37 cells were plated at a density of 6250 cells in 40 μL medium per well in 384 well plastic bottomed microtiter plates (BD Falcon) and incubated overnight at 37° C./5% CO2. Prior to screening, compounds were dissolved in 100% dimethyl sulfoxide (DMSO) to a final stock concentration of 10 mM. Compounds were then serially diluted at 30× final concentration in Edg-1 Transfluor cell growth medium containing […] using the Tecan Genesis instrument. These 30× plates were then diluted to 6× final concentration with Edg-1 Transfluor growth medium just prior to dosing. Cells were then dosed with 10 μL per well of 6× compound dilutions or 6% DMSO and pre-incubated for 15 minutes at room temperature. Cell plates were dosed with 10 μL per well 6× S1P Edg-1 Transfluor growth medium, then incubated for 45 minutes at 37° C./5% CO2. Final concentration in the well of DMSO was 1%, compound was IX (3-fold, 9 point IC50 dilutions starting at 100 μM final concentration), and either 375 nM or […] SIP ligand. Cell plates were then fixed by adding 50 μL per well of 5% formaldehyde in 1× Dulbecco's phosphate buffered saline (DPBS) directly and incubating for 30 minutes at room temperature in darkness. Fixative was removed and replaced with 50 μL per well of 1×DPBS, after which cells were stained with 10 μg/mL final concentration of Hoechst 33342 (Molecular Probes) for 15 minutes at room temperature in darkness. Stain was then removed from the plates and replaced with 50 μL per well of 1×DPBS using the BioTek ExL405 plate washer. Plates were then sealed and analysed on the Cellomics Arrayscan using the GPCR signalling algorithm. EC50 values were then calculated using IDBS ActivityBase software.
II. In Vitro Cell Based Receptor Activation Assay-Transfluor Assay
as §1, with “Devices (MDS Analytical Technologies).” for “Devices.”, “U2OS” for “U2OS WT”, “#3” for “#37”
Using a high content screening approach (Molecular Devices Image Express), receptor activity was measured by assessment of the relocalization of beta-aiTestin GFP in response to stimulation of Edg-1 by S1P. Specifically, Edg-1 Transfluor U2OS Clone #3 cells were plated at a density of 6250 cells in 44 μL medium per well in 384 well plastic bottomed microtiter plates (BD Falcon) and incubated overnight at 37° C./5% CO2. Prior to screening, compounds were dissolved in 100% dimethyl sulfoxide (DMSO) to a final stock concentration of 10 mM. Compounds were then serially diluted at 10× final concentration in Edg-1 Transfluor cell growth medium containing 6% DMSO using the BioMek instrument. […]

T1 sequence (P21453 whole entry): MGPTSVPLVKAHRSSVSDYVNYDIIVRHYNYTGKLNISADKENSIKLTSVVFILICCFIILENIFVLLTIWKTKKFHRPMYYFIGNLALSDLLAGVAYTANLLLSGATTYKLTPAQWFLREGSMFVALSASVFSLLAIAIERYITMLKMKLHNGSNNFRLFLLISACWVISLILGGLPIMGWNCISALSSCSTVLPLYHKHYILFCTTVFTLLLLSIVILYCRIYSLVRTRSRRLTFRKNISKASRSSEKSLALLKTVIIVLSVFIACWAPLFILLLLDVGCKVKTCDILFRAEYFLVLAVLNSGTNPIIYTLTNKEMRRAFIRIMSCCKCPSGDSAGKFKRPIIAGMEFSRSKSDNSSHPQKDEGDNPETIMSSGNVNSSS

inhibition at 3.3 µM [%] | Compound
92.8 | CCCn1c(C(C)NS(=O)(=O)c2ccc(Cl)cc2)nc2ccccc21 (stereo not shown) [Example 17, 4-Chloro-N-[1-(1-propyl-1H-benzimidazol-2-yl)ethyl]-benzenesulfonamide]

Same assay, conditions: at 3.50 μM (titrated from top concentration 10 μM)

Compound | inhibition at 3.5 µM [%]
CCn1c(C(C)(C)NS(=O)(=O)c2ccc(Cl)cc2)nc2ccccc21 [Example 16, 4-Chloro-N-[1-(1-ethyl-1H-benzoimidazol-2-yl)-1-methyl-ethyl]-benzenesulfonamide] | 96.2
CCn1c([C@@H](C)NS(=O)(=O)c2ccc(Cl)cc2)nc2cc(C)c(C)cc21 [Example 24, 4-Chloro-N-[(1R)-1-(1-ethyl-5,6-dimethyl-1H-benzimidazol-2-yl)ethyl]benzenesulfonamide] | 73
CCn1c([C@@H](C)NS(=O)(=O)c2ccc(F)c(C#N)c2)nc2ccc(C(F)(F)F)cc21 [Example 27, 3-Cyano-N-{(1R)-1-[1-ethyl-6-(trifluoromethyl)-1H-benzimidazol-2-yl]ethyl}-4-fluorobenzenesulfonamide] | 85.7
CCn1c([C@@H](C)NS(=O)(=O)c2ccc(F)c(C)c2)nc2ccc(C(F)(F)F)cc21 [Example 30, N-{(1R)-1-[1-Ethyl-6-(trifluoromethyl)-1H-benzimidazol-2-yl]ethyl}-4-fluoro-3-methylbenzenesulfonamide] | 94.6
CCn1c([C@@H](C)NS(=O)(=O)c2cc(C)oc2C)nc2ccc(C(F)(F)F)cc21 [Example 33, N-{(1R)-1-[1-Ethyl-6-(trifluoromethyl)-1H-benzimidazol-2-yl]ethyl}-2,5-dimethylfuran-3-sulfonamide] | 92
CCn1c([C@@H](C)NS(=O)(=O)c2ccc(F)c(F)c2F)nc2ccc(C(F)(F)F)cc21 [Example 34] | 95.3

The next lines start with the values.

inhibition at 3.5 µM [%] | Compound
84.8 | CCn1c([C@@H](C)NS(=O)(=O)c2ccc(Cl)cc2)nc2ccc(C(F)(F)F)cc21 [Example 9, 4-Chloro-N-{(1R)-1-[1-ethyl-6-(trifluoromethyl)-1H-benzimidazol-2-yl]ethyl} benzene-sulfonamide]
93.3 | CCn1c(C(C)NS(=O)(=O)c2ccc(Cl)cc2)nc2ncccc21 (stereo not shown) [Example 12, 4-Chloro-N-[1-(1-ethyl-1H-imidazo[4,5-b]pyridin-2-yl)-ethyl]-benzenesulfonamide]
90 | CCn1c([C@@H](C)NS(=O)(=O)c2ccc(F)cc2)nc2ccc(C(F)(F)F)cc21 [Example 25, N-{(1R)-1-[1-Ethyl-6-(trifluoromethyl)-1H-benzimidazol-2-yl]ethyl}-4-fluorobenzenesulfonamide]
87.4 | CCn1c([C@@H](C)NS(=O)(=O)c2ccc(C#N)cc2)nc2ccc(C(F)(F)F)cc21 [Example 26, 4-Cyano-N-{(1R)-1-[1-ethyl-6-(trifluoromethyl)-1H-benzimidazol-2-yl]ethyl}benzenesulfonamide]

Same assay, conditions: at 3.70 μM (titrated from top concentration 100 μM)

Compound | inhibition at 3.7 µM [%]
CCn1c(C(C)NS(=O)(=O)c2ccc(Cl)cc2)nc2ccc(Cl)cc21 (stereo not shown) [Example 10, 4-Chloro-N-[1-(6-chloro-1-ethyl-1H-benzimidazol-2-yl)ethyl]benzenesulfonamide] | 89.9
CC(NS(=O)(=O)c1ccc(Cl)cc1)c1nc2ccccc2n1CC1CC1 (stereo not shown) [Example 18, 4-Chloro-N-{1-[1-(cyclopropylmethyl)-1H-benzimidazol-2-yl]ethyl}-benzenesulfonamide] | 100
CCn1c([C@@H](C)NS(=O)(=O)c2ccc(Cl)cc2)nc2cc(F)c(F)cc21 [Example 20, 4-Chloro-N-[(1R)-1-(1-ethyl-5,6-difluoro-1H-benzimidazol-2-yl)ethyl]benzenesulfonamide] | 79.5
CCn1c([C@@H](C)NS(=O)(=O)C2CCCC2)nc2ccc(C(F)(F)F)cc21 [Example 28, N-{(1R)-1-[1-Ethyl-6-(trifluoromethyl)-1H-benzimidazol-2-yl]ethyl} cyclopentanesulfonamide] | 66.1
CCn1c([C@@H](C)NS(=O)(=O)c2ccc(NC(C)=O)c(C)c2)nc2ccc(C(F)(F)F)cc21 [Example 29, N-{4-[({(1R)-1-[1-Ethyl-6-(trifluoromethyl)-1H-benzimidazol-2-yl]ethyl}amino)sulfonyl]-2-methylphenyl}acetamide] | 21.8
CCn1ncc(S(=O)(=O)N[C@H](C)c2nc3ccc(C(F)(F)F)cc3n2CC)c1C [Example 31, 1-Ethyl-N-{(1R)-1-[1-ethyl-6-(trifluoromethyl)-1H-benzimidazol-2-yl]ethyl}-5-mthyl-1H-pyrazole-4-sulfonamide] | 78.6
CCn1c([C@@H](C)NS(=O)(=O)c2c(C)noc2C)nc2ccc(C(F)(F)F)cc21 [Example 37, N-{(1R)-1-[1-Ethyl-6-(trifluoromethyl)-1H-benzimidazol-2-yl]ethyl}-3,5-dimethylisoxazole-4-sulfonamide] | 58.3

Other lines, results leading:

inhibition at 3.7 µM [%] | Compound
82 | CCn1c([C@@H](C)NS(=O)(=O)c2ccc(Cl)cc2)nc2cccc(OC)c21 [Example 11, 4-Chloro-N-[(1R)-1-(1-ethyl-7-methoxy-1H-benzimidazol-2-yl)ethyl]benzene-sulfonamide]
72.8 | CCn1c(C(C)NS(=O)(=O)c2ccc(Cl)cc2)nc2cnccc21 (stereo not shown) [Example 13, 4-Chloro-N-[1-(1-ethyl-1H-imidazo[4,5-c]pyridin-2-yl)ethyl]benzene sulfonamide]
72.8 | CCn1c(C(C)NS(=O)(=O)c2ccc(Cl)cc2)nc2ccncc21 (stereo not shown) [Example 14, 4-Chloro-N-[1-(3-ethyl-3H-imidazo[4,5-c]pyridin-2-yl)ethyl] benzene sulfonamide]
61.5 | CCn1c(C(C)NS(=O)(=O)c2ccc(Cl)cc2)nc2cccnc21 (stereo not shown) [Example 15, 4-Chloro-N-[1-(3-ethyl-3H-imidazo[4,5-b]pyridin-2-yl)ethyl]benzenesulfonamide]
16.4 | CC(C)Cn1c(C(C)NS(=O)(=O)c2ccc(Cl)cc2)nc2ccccc21 (stereo not shown) [Example 19, 4-Chloro-N-[1-(1-isobutyl-1H-benzimidazol-2-yl)ethyl]-benzenesulfonamide]
39 | CC(NS(=O)(=O)c1ccc(Cl)cc1)c1nc2ccccc2n1C1CC1 (stereo not shown) [Example 21, 4-Chloro-N-[1-(1-cyclopropyl-1H-benzimidazol-2-yl)ethyl]benzenesulfonamide]
63.5 | CCn1c([C@@H](C)NS(=O)(=O)c2ccc(Cl)cc2)nc2cc(Cl)c(Cl)cc21 [Example 22, (R)-4-Chloro-N-[1-(5,6-dichloro-1-ethyl-1H-benzoimidazol-2-yl)ethyl]-benzenesulfonamide]
88.1 | CC(NS(=O)(=O)c1ccc(Cl)cc1)c1nc2ccccc2n1CC(F)(F)F (stereo not shown) [Example 23, 4-Chloro-N-{1-[1-(2,2,2-trifluoro-ethyl)-1H-benzimidazol-2-yl]-ethyl}-benzenesulfonamide]
66.5 | CCn1c([C@@H](C)NS(=O)(=O)c2cnc(C)n2C)nc2ccc(C(F)(F)F)cc21 [Example 32, N-{(1R)-1-[1-Ethyl-6-(trifluoromethyl)-1H-benzimidazol-2-yl]ethyl}-1,2-dimethyl-1H-imidazole-5-sulfonamide]
49 | CCn1c([C@@H](C)NS(=O)(=O)c2cnc(NC(C)=O)s2)nc2ccc(C(F)(F)F)cc21 [Example 36, N-{5-[({(1R)-1-[1-Ethyl-6-(trifluoromethyl)-1H-benzimidazol-2-yl]ethyl}amino)sulfonyl]-1,3-thiazol-2-yl}acetamide]

Same assay, conditions: one or the other of the two Transfluor assays; Edg-1 Transfluor U2OS cells, S1P ligand

EC50 [µM] | Compound
0.896 | CC(NS(=O)(=O)c1ccc(Cl)cc1)c1nc2ccccc2n1CC1CC1 (stereo not shown) [Example 18, 4-Chloro-N-{1-[1-(cyclopropylmethyl)-1H-benzimidazol-2-yl]ethyl}-benzenesulfonamide]
10.3 | CC(C)Cn1c(C(C)NS(=O)(=O)c2ccc(Cl)cc2)nc2ccccc21 (stereo not shown) [Example 19, 4-Chloro-N-[1-(1-isobutyl-1H-benzimidazol-2-yl)ethyl]-benzenesulfonamide]
5.15 | CC(NS(=O)(=O)c1ccc(Cl)cc1)c1nc2ccccc2n1C1CC1 (stereo not shown) [Example 21, 4-Chloro-N-[1-(1-cyclopropyl-1H-benzimidazol-2-yl)ethyl]benzenesulfonamide]

— patent US20100029643A1 (ASTRAZENECA AB, priority 2006, published 2010)
